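Grown in 96-well plates, cells were treated for 48 hours with each compound at five concentrations. Insufficient inhibition: endpoint recorded as highest concentration tested. The concentration for 50% growth inhibition is given as GI50. TGI: concentration producing complete growth inhibition.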
What was measured:
Test in all cases: NCI-60 cell line screen, 48 h
[1] = system: 786-0 renal
[2] = system: A498 renal
[3] = system: A549 NSCLC
[4] = system: ACHN renal
[5] = system: BT-549 breast
[6] = system: CAKI-1 renal
[7] = system: CCRF-CEM leukemia
[8] = system: COLO 205 colon
[9] = system: DU-145 prostate
[10] = system: EKVX NSCLC
[11] = system: HCC-2998 colon
[12] = system: HCT-116 colon
[13] = system: HCT-15 colon
[14] = system: HL-60(TB) leukemia
[15] = system: HOP-62 NSCLC
[16] = system: HOP-92 NSCLC
[17] = system: HS 578T breast
[18] = system: HT29 colon
[19] = system: IGROV1 ovarian
[20] = system: K-562 leukemia
[21] = system: KM12 colon
[22] = system: LOX IMVI melanoma
[23] = system: M14 melanoma
[24] = system: MALME-3M melanoma
[25] = system: MCF7 breast
[26] = system: MDA-MB-231 breast
[27] = system: MDA-MB-435
[28] = system: MOLT-4 leukemia
[29] = system: NCI-H226 lung
[30] = system: NCI-H23 lung
[31] = system: NCI-H460 lung
[32] = system: NCI-H522 lung
[33] = system: NCI/ADR-RES ovarian
[34] = system: OVCAR-3 ovarian
[35] = system: OVCAR-4 ovarian
[36] = system: OVCAR-5 ovarian
[37] = system: OVCAR-8 ovarian
[38] = system: PC-3 prostate
[39] = system: RPMI-8226 leukemia
[40] = system: RXF 393 renal
[41] = system: SF-268 CNS
[42] = system: SF-295 CNS
[43] = system: SF-539 CNS
[44] = system: SK-MEL-2 melanoma
[45] = system: SK-MEL-28 melanoma
[46] = system: SK-MEL-5 melanoma
[47] = system: SK-OV-3 ovarian
[48] = system: SN12C renal
[49] = system: SNB-19 CNS
[50] = system: SNB-75 CNS
[51] = system: SR leukemia
[52] = system: SW-620 colon
[53] = system: T-47D breast
[54] = system: TK-10 renal
[55] = system: U251 CNS
[56] = system: UACC-257 melanoma
[57] = system: UACC-62 melanoma
[58] = system: UO-31 renal

OCCNc1nc2ccccc2c2[nH]c3ccccc3c12
GI50 [1]: 407 nM | TGI [1]: 1920 nM | GI50 [2]: 360 nM | TGI [2]: 1720 nM | GI50 [3]: 394 nM | TGI [3]: 2190 nM | GI50 [4]: 278 nM | TGI [4]: 2670 nM | GI50 [5]: 1730 nM | TGI [5]: 6680 nM | GI50 [6]: 529 nM | TGI [6]: 8900 nM | GI50 [7]: 654 nM | TGI [7]: 10700 nM | GI50 [8]: 329 nM | TGI [8]: 1370 nM | GI50 [9]: 659 nM | TGI [9]: 12500 nM | GI50 [10]: 2140 nM | TGI [10]: 15500 nM | GI50 [11]: 527 nM | TGI [11]: 1710 nM | GI50 [12]: 278 nM | TGI [12]: 1680 nM | GI50 [13]: 349 nM | TGI [13]: 3590 nM | GI50 [14]: 349 nM | TGI [14]: 1950 nM | GI50 [15]: 583 nM | TGI [15]: 6660 nM | GI50 [16]: 943 nM | TGI [16]: 13200 nM | GI50 [17]: 710 nM | TGI [17]: 4570 nM | GI50 [18]: 321 nM | TGI [18]: 2710 nM | GI50 [19]: 397 nM | TGI [19]: 6100 nM | GI50 [20]: 440 nM | TGI [20]: > 26300 nM | GI50 [21]: 483 nM | TGI [21]: 4630 nM | GI50 [22]: 419 nM | TGI [22]: 1800 nM | GI50 [23]: 699 nM | TGI [23]: 2030 nM | GI50 [24]: 487 nM | TGI [24]: 1910 nM | GI50 [25]: 355 nM | TGI [25]: 2000 nM | GI50 [26]: 611 nM | TGI [26]: 3630 nM | GI50 [27]: 528 nM | TGI [27]: 1810 nM | GI50 [28]: 240 nM | TGI [28]: 1480 nM | GI50 [29]: 839 nM | TGI [29]: 4790 nM | GI50 [30]: 496 nM | TGI [30]: 1880 nM | GI50 [31]: 305 nM | TGI [31]: 1240 nM | GI50 [32]: 360 nM | TGI [32]: 1730 nM | GI50 [33]: 738 nM | TGI [33]: 5180 nM | GI50 [34]: 516 nM | TGI [34]: 3470 nM | GI50 [35]: 1060 nM | TGI [35]: 4590 nM | GI50 [36]: 1130 nM | TGI [36]: 7550 nM | GI50 [37]: 455 nM | TGI [37]: 4700 nM | GI50 [38]: 1100 nM | TGI [38]: 16900 nM | GI50 [39]: 388 nM | TGI [39]: 3910 nM | GI50 [40]: 146 nM | TGI [40]: 646 nM | GI50 [41]: 519 nM | TGI [41]: 3420 nM | GI50 [42]: 314 nM | TGI [42]: 2420 nM | GI50 [43]: 615 nM | TGI [43]: 3680 nM | GI50 [44]: 907 nM | TGI [44]: 3290 nM | GI50 [45]: 1040 nM | TGI [45]: 2550 nM | GI50 [46]: 979 nM | TGI [46]: 2540 nM | GI50 [47]: 329 nM | TGI [47]: 2070 nM | GI50 [48]: 340 nM | TGI [48]: 11400 nM | GI50 [49]: 345 nM | TGI [49]: 3570 nM | GI50 [50]: 1880 nM | TGI [50]: 4200 nM | GI50 [51]: 206 nM | TGI [51]: 5950 nM | GI50 [52]: 325 nM | TGI [52]: 2260 nM | GI50 [53]: 366 nM | TGI [53]: 2290 nM | GI50 [54]: 744 nM | TGI [54]: 5160 nM | GI50 [55]: 661 nM | TGI [55]: 4310 nM | GI50 [56]: 944 nM | TGI [56]: 2330 nM | GI50 [57]: 1360 nM | TGI [57]: 6520 nM | GI50 [58]: 297 nM | TGI [58]: 1370 nM
